Data: patent US11419335B2, “N-arylated analogues and uses thereof” (University of Florida Research Foundation, Incorporated, priority 2016, dated 2022)
Marks after values point to notes of the source that are not given here.

Key:
[1] = test system: MRSE ATCC 35984 biofilms; test: Calgary Biofilm Device assay (MBC/MBEC), MRSE 35984; assay type: cell-based, Staphylococcus epidermidis
Procedure: (§1) The lid of the Calgary device was then removed, washed and transferred to another 96-well plate containing 2-fold serial dilutions of the test compounds (the “challenge plate”). The total volume of media with compound in each well in the challenge plate is 150 μL. […] The lid was then removed from the challenge plate and MBC/MBEC values were determined using different final assays. […] The MBC values were determined as the concentration giving a lack of visible bacterial growth (i.e., turbidity). […] In select experiments, pegs from the Calgary device were removed from lead biofilm eradicators after final incubation, sonicated for 30 minutes in PBS and plated out to determine biofilm cell killing of lead biofilm-eradicating agents (i.e., colony forming unit per milliliter, CFU/mL).
(§2) Using a Calgary Biofilm Device, bacterial biofilms are established on pegs suspended to the bottom of a 96-well plate lid. Following biofilm establishment on lid pegs, lids are then transferred to new 96-well plates containing serial dilutions of test compound and allowed to incubate. After compound treatment, 96-well plate lids with pegs are once again transferred to 96-well plates containing fresh media. During this final phase of the assay, viable biofilms will grow and disperse planktonic cells into the media where they will grow and give a turbid well result. Conversely, wells that have no growth are a result of pegs that had eradicated bacterial biofilms. The lowest concentration at which no turbidity is observed is the minimum biofilm eradication concentration (MBEC). Using the Calgary Biofilm Device, both minimum biofilm eradication concentrations and minimum bactericidal concentrations (MBC) for planktonic bacterial can be determined using one assay from a single bacterial culture (FIG. 3A).

[2] = test system: Escherichia coli clinical isolate (UAEC-1); test: MIC broth microdilution, UAEC-1; assay type: cell-based; details: for MIC UAEC-1: Table 4; for MIC: Table 1
Procedure: (§3) The minimum inhibitory concentration (MIC) for each tested compound was determined by the broth microdilution method as recommended by the Clinical and Laboratory Standards Institute (CLSI). In a 96-well plate, eleven two-fold serial dilutions of each compound were made in a final volume of 100 μL Luria Broth. Each well was inoculated with ˜10^5 bacterial cells at the initial time of incubation, prepared from a fresh log phase culture (OD600 of 0.5 to 1.0 depending on bacterial strain). The MIC was defined as the lowest concentration of compound that prevented bacterial growth after incubating 16 to 18 hours at 37° C. (MIC values were supported by spectrophotometric readings at OD600). DMSO served as our vehicle and negative control in each microdilution MIC assay. DMSO was serially diluted with a top concentration of 1% v/v.
as §3, with “for each compound was” for “for each tested compound was”, “Standards Institute (CLSI).^6 In a” for “Standards Institute (CLSI). In a”, “concentration of test compound that” for “concentration of compound that”, “37° C. The concentration range tested for each compound during this study was 0.10 to 100 μM. DMSO served” for “37° C. (MIC values were supported by spectrophotometric readings at OD600). DMSO served”, “1% v/v. All MIC values were obtained from a minimum of three independent experiments.” for “1% v/v.”

[3] = test system: VRE ATCC 700221 biofilms; test: Calgary Biofilm Device assay (MBC/MBEC), VRE 700221; assay type: cell-based, Enterococcus faecium; details: for VRE MBC / VRE MBEC: Table 2A; for VRE 700221 MBEC: biofilm
Procedure: as §1, §2

[4] = test system: MRSA-2 biofilms; test: Calgary Biofilm Device assay (MBC/MBEC), MRSA-2; assay type: cell-based, Staphylococcus aureus; details: Table 2A; CBD assay
Procedure: as §1, §2

[5] = test system: MRSA BAA-1707 biofilms; test: Live/Dead staining of MRSA biofilms; assay type: cell-based, Staphylococcus aureus
Procedure: A mid-log culture of MRSA BAA-1707 was diluted 1:1000-fold and 500 μL was transferred to each compartment of a four-compartment CELLview dish (Greiner Bio-One 627871). The dish was then incubated for 24 hours at 37° C. to establish MRSA-1707 biofilms. After this time, the cultures were removed and the plate was washed with 0.9% saline. The dish was then treated with test compounds in fresh media at various concentrations. DMSO was used as a negative control in this assay. The dish was incubated with the test compound for 24 hours at 37° C. After this time, the cultures were removed and the dish was washed with 0.9% saline for 2 minutes. Saline was then removed and 500 μL of the stain (Live/Dead BacLight Viability Kit, Invitrogen) were added for 15 minutes and left in the dark. After this time, the stain was removed and the dish was washed twice with 0.9% saline. Then the dish was fixed with 500 μL 4% paraformaldehyde in PBS for 30 minutes. Images of remaining MRSA biofilms were then taken with a fluorescence microscope.

[6] = test system: MRSA BAA-1707 stationary cultures; test: MRSA persister cell kill kinetics (stationary cultures); assay type: cell-based, Staphylococcus aureus; details: 50 μM; after 90 minutes
Procedure: (§4) An overnight culture of MRSA BAA-1707 was diluted in fresh TSBG (1:13 to 1:20 fold) and allowed to grow with shaking. Once the culture reached stationary phase (4-6 hours), test compounds were added at a final test concentration of 50 μM. The cultures were incubated with shaking at 250 rpm and aliquots were removed and plated out at predetermined time points. Colony forming units (CFU) per milliliter data was recorded and plotted using Graphpad Prism 6.0.
The panel of membrane-active compounds was also evaluated head-to-head at 50 μM against MRSA BAA-1707 stationary cultures in kinetic killing experiments. Stationary cultures of S. aureus have elevated populations of metabolically dormant persister cells^36,37 and using this experiment, we could get multiple early time points to see if 1 and 2 were rapid killers of MRSA persister cells.
as §4, with “different” for “predetermined”

[7] = Table 2, CBD assay, planktonic cells

| SMILES | MRSE 35984 MBC ([1]; Table 2A, CBD assay) | MRSE 35984 MBEC ([1]; Table 2A, CBD assay) | MIC UAEC-1 [2] | VRE MBC ([3]; CBD assay) | VRE MBEC ([3]; CBD assay) | MRSA-2 MBC [4] | MRSA-2 MBEC [4] | further results |
| --- | --- | --- | --- | --- | --- | --- | --- | --- |
| CCCCCCCCCCCCCCCCn1cc[n+](C)c1C.[I-] [Compound 8] | 3.0^a/ μM | 3.0^a μM | 12.5 µM | 3.9/3.9 μM | 3.9/3.9 μM | 11.7 µM | 23.5 µM | – |
| CCCCCCCCCCCCCCCCn1cc[n+](Cc2ccccc2)c1C [NH125, 3-benzyl-1-hexadecyl-2-methyl-1H-imidazol-3-ium bromide, reference compound] | – | – | 18.8a micromolar | – | – | – | – | MBC ([1]; Staphylococcus epidermidis, Table 2, CBD assay, planktonic cells): 15.6 µM; MRSE 35984 MBEC ([1]; Table 2, CBD assay, biofilm): 5.9 µM; clearance of MRSA biofilms (fluorescence images) ([5]; FIG. 4, 24 hours after treatment): potent clearance of MRSA biofilms; clearance of established biofilms (Live/Dead staining) ([5]; at 31.3 μM): effective clearance of established biofilms; reduction of stationary MRSA cells [6]: ~1 logs; MIC ([2]; Escherichia coli): 18.8 µM; MBC ([3]; Enterococcus, Table 2, CBD assay, planktonic cells): 59 µM; VRE 700221 MBEC ([3]; Table 2, CBD assay): 11.7 µM |
| CCCCCCCCCCCCCCCCn1cc[n+](Cc2cccc(F)c2)c1C.[Br-] [Compound 18] | 11.7^a/ μM | 11.7^a μM | – | 5.85^a/ μM | 11.7^a μM | 93.8^a/93.8^a μM | 93.8^a/93.8^a μM | – |
| CCCCCCCCCCCC[N+](C)(C)CC[N+](C)(C)CC[N+](C)(C)CCCCCCCCCCCC [QAC-10, reference compound] | 31.3 µM⁻¹ | 31.3 µM | 12.5 µM | 3.0^a/ μM | 3.0^a μM | 31.3 µM | 125 µM | MBEC, MRSE biofilms ([1]; MRSE ATCC 35984): 31.3 µM; MRSE 35984 MBEC ([1]; Table 2, CBD assay, biofilm): 31.3/31.3 μM; MRSE 35984 MBC [1, 7]: 31.3/31.3 μM; MIC [2]: 12.5 µM; MBEC, VRE biofilms [3]: 3.0 µM; VRE 700221 MBEC ([3]; Table 2, CBD assay): 3.0^a/3.0^a μM; VRE 700221 MBC [3, 7]: 3.0^a/3.0^a μM |
| CCCCCCCCCCCCCCCC[N+](C)(C)Cc1ccccc1.[Cl-] [BAC-16, reference compound] | – | – | 6.25 µM | – | – | – | – | – |
| CCCCCCCCCCCCCCCCn1cc(-c2ccccc2)[n+](C)n1.[I-] [Compound 30] | – | – | – | – | – | 31.3^b/31.3 μM | 31.3^b/31.3 μM | – |
| CCCCCCCCCCCCCCCCn1cc[n+](CCO)c1C.[Br-] [Compound 11] | 3.9/3.9 μM | 3.9/3.9 μM | 12.5 µM | 3.0^a/ μM | 3.9 µM | 11.7 µM | 31.3 µM | – |
